Data published in US11560372B2, “Heterocyclic compounds useful as modulators of acetylcholine receptors” (TAKEDA PHARMACEUTICAL COMPANY LIMITED, priority 2017, dated 2023).

Legend:
[1] = target: T1, human M1 receptor (hCHRM1) (Homo sapiens, UniProt P11229); experiment: Measurement of M1 receptor positive allosteric modulator (M1PAM) activity, calcium fluorescence in CHO-K1 cells; type: cell-based; settings: for activity (%) at 10 μM: 10 μM test compound, 100% = acetylcholine final concentration 1 μM, 0% = DMSO; for EC50: inflection point of concentration-dependent curve, in the presence of acetylcholine at EC20 concentration (final 0.8-1.0 nM), read-out: IP value
T1 construct: expressed in transfected cells
T1 sequence (P11229 1-460): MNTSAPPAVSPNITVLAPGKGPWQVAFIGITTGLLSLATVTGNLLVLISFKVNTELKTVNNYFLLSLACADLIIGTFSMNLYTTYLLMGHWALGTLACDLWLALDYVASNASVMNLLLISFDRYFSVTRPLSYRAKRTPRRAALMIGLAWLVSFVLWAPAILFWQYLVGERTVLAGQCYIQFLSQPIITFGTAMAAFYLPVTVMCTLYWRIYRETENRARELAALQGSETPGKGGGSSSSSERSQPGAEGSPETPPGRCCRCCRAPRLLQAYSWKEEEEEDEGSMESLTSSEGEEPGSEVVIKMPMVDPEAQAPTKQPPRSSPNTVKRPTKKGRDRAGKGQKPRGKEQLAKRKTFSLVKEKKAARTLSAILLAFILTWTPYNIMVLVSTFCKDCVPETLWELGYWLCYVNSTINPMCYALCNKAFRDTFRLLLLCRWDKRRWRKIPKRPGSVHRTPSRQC
Procedure, shortened: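 CHO-K1 cells stably expressing human M1 loaded with Fluo-4 AM, then given compound plus acetylcholine at EC20 (final 0.8-1.0 nM). Calcium fluorescence read for 1 min; activity normalized to 1 μM acetylcholine (100%) and DMSO (0%), with IP taken as inflection point of concentration curve.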

[2] = target: T2, MDR1 (Homo sapiens, UniProt P08183); experiment: MDR1 membrane permeability test; type: in vitro ADME; settings: pH 7.4, efflux ratio (ER), Papp B to A / A to B, human MDR1-expressing LLC-PK1 cells, read-out: MDR1 substrate screening 1 μM (MDRSUB1)/Ratio (NUMBER)
T2 construct: expressed in transfected cells
Procedure, shortened: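 Human MDR1-expressing LLC-PK1 cells were grown for 3 days on 96-well polyethylene terephthalate Transwell supports (0.4 μm pores, 0.143 cm^2) seeded at 3.45×10^4 cells/well. After a 30 min preincubation in M199 medium with 10 mmol/L HEPES and 1% BSA (pH 7.4), drug was added apically or basolaterally. After 1 hr at 37° C, the opposite side was sampled and analyzed by LC-MS/MS. Efflux ratio was calculated from Papp B to A versus A to B.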

T2 sequence (P08183 whole entry): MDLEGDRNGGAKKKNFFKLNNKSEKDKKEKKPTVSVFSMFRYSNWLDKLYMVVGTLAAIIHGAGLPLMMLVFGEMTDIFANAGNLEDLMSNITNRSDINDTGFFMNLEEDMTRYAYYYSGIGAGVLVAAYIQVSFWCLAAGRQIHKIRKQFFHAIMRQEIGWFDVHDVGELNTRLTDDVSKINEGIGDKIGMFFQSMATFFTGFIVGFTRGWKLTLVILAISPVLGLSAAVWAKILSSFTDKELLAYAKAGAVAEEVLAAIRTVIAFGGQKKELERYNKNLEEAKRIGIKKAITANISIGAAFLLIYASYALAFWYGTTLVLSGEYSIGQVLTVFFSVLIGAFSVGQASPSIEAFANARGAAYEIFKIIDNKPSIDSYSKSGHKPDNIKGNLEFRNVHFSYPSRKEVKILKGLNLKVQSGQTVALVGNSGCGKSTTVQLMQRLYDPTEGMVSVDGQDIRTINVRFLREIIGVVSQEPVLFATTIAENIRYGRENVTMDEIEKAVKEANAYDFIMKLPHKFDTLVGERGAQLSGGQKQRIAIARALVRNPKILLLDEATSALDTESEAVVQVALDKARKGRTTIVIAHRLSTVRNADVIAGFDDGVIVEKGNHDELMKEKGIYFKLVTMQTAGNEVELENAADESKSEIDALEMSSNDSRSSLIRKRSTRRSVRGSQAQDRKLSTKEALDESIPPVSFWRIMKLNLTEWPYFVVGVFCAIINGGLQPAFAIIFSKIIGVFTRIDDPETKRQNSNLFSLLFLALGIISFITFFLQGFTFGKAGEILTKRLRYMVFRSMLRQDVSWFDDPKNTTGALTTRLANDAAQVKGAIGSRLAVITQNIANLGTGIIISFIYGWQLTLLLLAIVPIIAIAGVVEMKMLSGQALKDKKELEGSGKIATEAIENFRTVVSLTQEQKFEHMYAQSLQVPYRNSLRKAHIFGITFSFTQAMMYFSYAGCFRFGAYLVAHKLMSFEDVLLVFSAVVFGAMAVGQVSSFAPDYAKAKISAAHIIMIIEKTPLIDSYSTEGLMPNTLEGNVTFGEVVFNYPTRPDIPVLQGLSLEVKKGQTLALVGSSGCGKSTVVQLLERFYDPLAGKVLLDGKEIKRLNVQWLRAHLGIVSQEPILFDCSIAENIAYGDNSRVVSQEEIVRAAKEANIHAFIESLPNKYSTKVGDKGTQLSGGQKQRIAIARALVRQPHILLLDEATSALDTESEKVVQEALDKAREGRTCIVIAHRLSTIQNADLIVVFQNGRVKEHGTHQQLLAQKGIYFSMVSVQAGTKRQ

Row | activity (%) at 10 μM [1] | EC50 [1] | efflux ratio at 1 hr, 1 μM [2] | Structure (SMILES)
1 | 107% | 2.1 nM | 10 | CCOCCNC(=O)c1ccc(Cc2cc3c(=O)n([C@H]4CCOC[C@@H]4O)cnc3c(C)c2C)cc1F [Example 85, 1,5-anhydro-2,3-dideoxy-3-(6-(4-((2-ethoxyethyl)carbamoyl)-3-fluorobenzyl)-7,8-dimethyl-4-oxoquinazolin-3(4H)-yl)-L-threo-pentitol]
2 | 110% | 3.1 nM | 7.8 | COCCCNC(=O)c1ccc(Cc2cc3c(=O)n([C@H]4CCOC[C@@H]4O)cnc3c(C)c2C)cc1F [Example 86, 1,5-anhydro-2,3-dideoxy-3-(6-(3-fluoro-4-((3-methoxypropyl)carbamoyl)benzyl)-7,8-dimethyl-4-oxoquinazolin-3(4H)-yl)-L-threo-pentitol]
3 | 111% | 2.3 nM | 8.7 | Cc1c(Cc2ccc(C(=O)NC3CC3)c(F)c2)cc2c(=O)n([C@H]3CCOC[C@@H]3O)cnc2c1C [Example 87, 1,5-anhydro-3-(6-(4-(cyclopropylcarbamoyl)-3-fluorobenzyl)-7,8-dimethyl-4-oxoquinazolin-3(4H)-yl)-2,3-dideoxy-L-threo-pentitol]
